Values of other authors, collected in patent US20250312496A1, “PROSTATE SPECIFIC MEMBRANE ANTIGEN (PSMA) LIGANDS” (Deutsches Krebsforschungszentrum Stiftung des öffentlichen …, priority 2022, published 2025).

Tested on: prostate cancer

## O=C(O)CC[C@H](NC(=O)N[C@@H](CCCCNC(=O)[C@H](Cc1ccc2ccccc2c1)NC(=O)[C@H]1CC[C@H](CNC(=O)CN2CCN(CC(=O)O)CCN(CC(=O)O)CCN(CC(=O)O)CC2)CC1)C(=O)O)C(=O)O [225Ac-PSMA-617, metal not drawn]
Both patients
  PSA value: fell below the detectability limit
Two patients with extremely advanced and end-stage disease
  response of patients: complete remission
